The target of one assay is T1, human PMAT (Homo sapiens, UniProt Q7RTT9).
T1 construct: expressed in transfected cells; host or cells: HEK293
T1 sequence (Q7RTT9 1-530): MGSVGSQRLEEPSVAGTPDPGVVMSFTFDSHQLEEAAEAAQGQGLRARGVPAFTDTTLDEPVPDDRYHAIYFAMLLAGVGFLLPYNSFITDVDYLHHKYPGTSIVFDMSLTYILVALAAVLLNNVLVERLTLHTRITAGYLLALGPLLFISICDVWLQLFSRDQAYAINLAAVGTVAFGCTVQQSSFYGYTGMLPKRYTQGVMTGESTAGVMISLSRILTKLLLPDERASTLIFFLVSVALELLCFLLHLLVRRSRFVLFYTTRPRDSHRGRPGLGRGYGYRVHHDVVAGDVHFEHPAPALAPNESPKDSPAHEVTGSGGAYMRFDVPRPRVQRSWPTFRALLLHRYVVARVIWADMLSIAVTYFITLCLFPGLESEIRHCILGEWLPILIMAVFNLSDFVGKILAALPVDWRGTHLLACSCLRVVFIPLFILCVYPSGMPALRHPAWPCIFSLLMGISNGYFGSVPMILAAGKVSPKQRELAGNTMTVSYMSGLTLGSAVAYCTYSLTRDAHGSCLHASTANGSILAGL
In words: Oxygen consumption rate (OCR) assay, HEK293 cells transfected with PMAT. It is filed as cell-based. The source says:
(§1) Diabetologia 2011, 54 (12): 3101-3110, each incorporated by reference with regard to such testing. The compounds of the present invention are similarly tested in an oxygen consumption rate (OCR) assay to evaluate the functional activity of test compounds in cells.
(§2) In brief, the assay uses HEK293 cells stably transfected with the human OCT1, OCT2, OCT3, PMAT, or MATE1 transporters to determine a compound's relative transporter selectivity and its effect on the rate of oxygen consumption relative to control (Neo) cells. The MitoXpress Xtra oxygen-sensitive fluorophore is used to monitor oxygen consumption rates in the presence and absence of compound treatments. The analogs were tested at eight (8) different concentrations in triplicate to determine a relative IC50 value.
(§3) A summary description of the protocol is as follows:
(§4) HEK293 cells transformed with human organic cation transporters were plated in collagen coated, 96-well black-walled microclear plates (Greiner-Bio 1, #655956) at 60,000 cells per well in growth medium (DMEM (LG), 10% FBS, 400 μg/ml G418). Cells were incubated overnight to allow attachment. The outer columns (1 and 12) are not seeded with cells, as controls. The next day, plating medium was removed and replaced with 150 μL of assay medium (DMEM/F12 (PRF), 5% FBS, antibiotics) containing compound dilutions. A 3-fold serial dilution was prepared in the assay medium and transferred to the empty wells. The outer columns and column 11 received 150 μL of assay medium only. 10 μL of MitoXpress Xtra reagent was added to each test well, and 100 μL of pre-warmed mineral oil was overlayed in each well to create a seal. Dual read time-resolved fluorescence (BMG FluoStar Galaxy reader) was measured over 2 hours with measurements taken every 2 minutes. Excitation is 340 nm, Emission is 650 nm. For lifetime analysis, two measurements per well were taken: 1) delay of 30 μs, with a window of 30 μs; and 2) delay of 70 μs with a window of 30 μs. Background TRF values from A1-D1 were subtracted from all readings. A ratiometric analysis was performed to determine changes in the Lifetime fluorescence signal:Lifetime (μs) [T]=(D2−D1)/ln(W1/W2), where D is delay; W is fluorescence window value at each time point. Lifetime slopes were calculated using each Lifetime measurement over time. IC50 values were determined by plotting lifetime slope values vs. compound concentration.

The next assay concerns the target T2, human MATE1 (Homo sapiens, UniProt Q96FL8).
T2 sequence (Q96FL8 1-570): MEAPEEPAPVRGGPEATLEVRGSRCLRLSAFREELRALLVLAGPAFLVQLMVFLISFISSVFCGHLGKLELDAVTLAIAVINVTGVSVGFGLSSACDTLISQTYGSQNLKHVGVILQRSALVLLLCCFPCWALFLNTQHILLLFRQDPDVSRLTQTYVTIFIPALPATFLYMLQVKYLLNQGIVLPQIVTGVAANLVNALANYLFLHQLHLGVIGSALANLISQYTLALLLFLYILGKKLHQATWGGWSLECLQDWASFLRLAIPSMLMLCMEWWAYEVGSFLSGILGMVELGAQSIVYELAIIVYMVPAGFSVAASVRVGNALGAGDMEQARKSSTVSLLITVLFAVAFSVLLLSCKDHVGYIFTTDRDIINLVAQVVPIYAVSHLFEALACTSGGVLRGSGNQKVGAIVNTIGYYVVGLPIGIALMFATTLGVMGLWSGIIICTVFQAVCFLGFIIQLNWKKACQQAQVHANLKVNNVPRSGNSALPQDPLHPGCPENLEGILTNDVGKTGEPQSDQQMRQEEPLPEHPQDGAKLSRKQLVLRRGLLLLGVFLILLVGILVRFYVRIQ
The assay can be described thus: Oxygen consumption rate (OCR) assay, HEK293 cells transfected with MATE1.

The next assay deals with control (Neo) cells. The assay can be described thus: Oxygen consumption rate (OCR) assay, control (Neo) HEK293 cells. In kind it is cell-based. Particulars: Homo sapiens, read-out: Oxygen Consumption Rate (OCR) IC50, Neo.
The target of the next assay is T3, human OCT2 (Homo sapiens, UniProt O15244).
T3 sequence (O15244 1-555): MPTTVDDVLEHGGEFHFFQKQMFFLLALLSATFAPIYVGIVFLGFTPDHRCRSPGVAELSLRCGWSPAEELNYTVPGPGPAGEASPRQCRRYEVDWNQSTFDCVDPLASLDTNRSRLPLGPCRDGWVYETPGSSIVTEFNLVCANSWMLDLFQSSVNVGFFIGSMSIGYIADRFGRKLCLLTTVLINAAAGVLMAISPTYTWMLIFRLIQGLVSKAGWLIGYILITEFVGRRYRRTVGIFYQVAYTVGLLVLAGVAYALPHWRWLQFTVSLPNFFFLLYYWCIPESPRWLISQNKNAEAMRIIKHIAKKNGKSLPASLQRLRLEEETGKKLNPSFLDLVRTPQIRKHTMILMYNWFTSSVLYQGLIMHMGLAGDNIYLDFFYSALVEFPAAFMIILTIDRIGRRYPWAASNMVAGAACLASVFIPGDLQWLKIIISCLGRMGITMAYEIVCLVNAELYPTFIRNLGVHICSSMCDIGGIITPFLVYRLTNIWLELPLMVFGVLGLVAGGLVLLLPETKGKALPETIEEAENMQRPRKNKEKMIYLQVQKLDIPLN
In words: Oxygen consumption rate (OCR) assay, HEK293 cells transfected with OCT2. Particulars: HEK293 cells stably transfected with human OCT2; MitoXpress Xtra, 2 hours.
From the text: as §1, §2, §3
as §4, with “10 μL of MitoXpress Xtra reagent was added to each test well, and 100 μL of pre-warmed mineral oil was overlayed in each well to create a seal.” left out, “Excitation is 340 nm, Emission is 650 nm. For lifetime analysis, two measurements per well were taken: 1) delay of 30 μs, with a window of 30 μs; and 2) delay of 70 μs with a window of 30 μs.” left out

The target of the next assay is T4, human OCT1 (Homo sapiens, UniProt O15245).
T4 sequence (O15245 1-554): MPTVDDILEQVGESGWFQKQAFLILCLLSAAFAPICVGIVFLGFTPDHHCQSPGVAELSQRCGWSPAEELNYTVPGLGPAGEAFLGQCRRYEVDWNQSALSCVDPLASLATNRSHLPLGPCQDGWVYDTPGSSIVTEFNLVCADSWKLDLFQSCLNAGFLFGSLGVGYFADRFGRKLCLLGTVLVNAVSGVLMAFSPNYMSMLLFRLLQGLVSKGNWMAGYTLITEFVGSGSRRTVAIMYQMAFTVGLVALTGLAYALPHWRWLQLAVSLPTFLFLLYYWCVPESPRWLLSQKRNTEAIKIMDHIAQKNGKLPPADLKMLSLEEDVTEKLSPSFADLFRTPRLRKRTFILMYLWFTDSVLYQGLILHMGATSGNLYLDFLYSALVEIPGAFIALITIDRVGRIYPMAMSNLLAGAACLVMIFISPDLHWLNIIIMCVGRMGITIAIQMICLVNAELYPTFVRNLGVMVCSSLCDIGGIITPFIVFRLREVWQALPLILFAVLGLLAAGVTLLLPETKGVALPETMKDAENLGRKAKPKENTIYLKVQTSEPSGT
In words: Oxygen consumption rate (OCR) assay, HEK293 cells transfected with OCT1. The following applies: HEK293 cells stably transfected with human OCT1; MitoXpress Xtra, 2 hours.
From the text: as §1, §2, §3
as §4, with “10 μL of MitoXpress Xtra reagent was added to each test well, and 100 μL of pre-warmed mineral oil was overlayed in each well to create a seal.” left out, “Excitation is 340 nm, Emission is 650 nm. For lifetime analysis, two measurements per well were taken: 1) delay of 30 μs, with a window of 30 μs; and 2) delay of 70 μs with a window of 30 μs.” left out

For assay [1] the following is noted: NASH, dose up to 1 g twice daily (BID); cited from earlier work.
For assay [2] the following is noted: T2D patients treated with metformin, retrospective studies; cited from earlier work.
For assay [3] the following is noted: diabetic patients receiving metformin; cited from earlier work.
The conditions of assay [4]: diabetic cancer patients taking metformin during neoadjuvant chemotherapy; versus 8% not receiving metformin, P=0.007; cited from earlier work.

Here are results for 7 compounds from US12371404B2, “Fused bicyclic alkylene linked imidodicarbonimidic diamides, methods for synthesis, and uses in therapy” (NovaTarg, Inc., priority 2016, dated 2025).

Counter-ions that a name gives are not always drawn. Like-named read-outs stand apart in the source and are kept apart here.

As for `N=C(N)NC(=N)NCCc1c[nH]c2cc(F)ccc12` [Ex 11, 1-[2-(6-fluoro-1H-indol-3-yl)ethyl]imidodicarbonimide Diamide Trifluoroacetic Acid Salt], the IC50 at human PMAT came to 3 µM; against human MATE1, 57 µM; in the assay on control (Neo) cells (HEK293, 2 h), 214 µM. Further, the “Oxygen Consumption Rate (OCR) IC50, OCT 2” value at human OCT2 was determined as 12 µM.

As for `N=C(N)NC(=N)NCCc1c[nH]c2cccc(F)c12` [Ex 26, 1-[2-(4-fluoro-1H-indol-3-yl)ethyl]imidodicarbonimide diamide, trifluoroacetic acid salt], the IC50 at human PMAT was determined as 2 µM; with control (Neo) cells (HEK293, 2 h) it was 90 µM. Further, the “Oxygen Consumption Rate (OCR) IC50, OCT 2” value at human OCT2 came to 2 µM.

Consider `Cc1[nH]c2ccccc2c1CCNC(=N)NC(=N)N` [Ex 1, 1-[2-(2-methyl-1H-indol-3-yl)ethyl]imidodicarbonimide diamide], for which the half-inhibitory concentration (IC50) against human PMAT was 3 µM; in the assay on control (Neo) cells (HEK293, 2 h) it was over 5000 µM. Further, the “Oxygen Consumption Rate (OCR) IC50, OCT 1” value at human OCT1 was determined as 1267 µM. In addition, on human MATE1 (HEK293, read-out: Oxygen Consumption Rate (OCR), MATE 1, % Inhibition at 1000 μM test concentration), the inhibition at 1000 µM was determined as 30%.

In the case of `CN(C)C(=N)NC(=N)N` [Metformin], the “patients with improvement in liver pathology and ALT” value in [1] was 30%. Moreover, in [2], the “reduced cancer burden than patients on other treatments” value is given as about 40%. Moreover, in [3], the “decrease in breast cancer compared with those on other therapies” value was 56%. Besides, the half-maximal inhibitory concentration (IC50) was 288 µM at human PMAT (HEK293 cells stably transfected with human PMAT, MitoXpress Xtra, 2 hours, read-out: Oxygen Consumption Rate (OCR) IC50, PMAT) and over 3000 µM with control (Neo) cells (control (Neo) HEK293 cells, MitoXpress Xtra, 2 hours). Moreover, in assay [4], the “pathological complete response rate” value is reported as 24%.

Consider `Cl.N=C(N)NC(=N)NCCc1c[nH]c2ccc(F)cc12` [Ex 2, 1-[2-(5-fluoro-1H-indol-3-yl)ethyl]imidodicarbonimide diamide hydrochloride], for which the IC50 against human PMAT was 5 µM; against human MATE1 it was over 1000 µM; in the assay on control (Neo) cells (HEK293, 2 h) it was over 1000 µM. Further, the “Oxygen Consumption Rate (OCR) IC50, OCT 1” value on human OCT1 is over 1000 µM.

Consider `N=C(N)NC(=N)NCCc1c[nH]c2cccc(Cl)c12` [Ex 34, 1-[2-(4-chloro-1H-indol-3-yl)ethyl]imidodicarbonimide diamide, trifluoroacetic acid salt], for which the half-maximal inhibitory concentration (IC50) was 2 µM against human PMAT; 19 µM against human MATE1; 184 µM in the assay with control (Neo) cells (HEK293, 2 h). Also, the “Oxygen Consumption Rate (OCR) IC50, OCT 1” value on human OCT1 turned out to be 3 µM.

`N=C(N)NC(=N)NCCc1c[nH]c2c(F)cccc12` [Ex 3, 1-[2-(7-fluoro-1H-indol-3-yl)ethyl]imidodicarbonimide diamide]: the IC50 against human PMAT was determined as 4 µM; against human MATE1 it was 20 µM; with control (Neo) cells (HEK293, 2 h), 677 µM. The “Oxygen Consumption Rate (OCR) IC50, OCT 2” value on human OCT2 worked out at 7 µM.
